Data set [1] can be described thus: Inhibition of 20-HETE synthesis in human renal microsomes. Further details: species or system Microsome.
Data set [2] is described as follows: Distribution coefficient of compound was evaluated at pH 6.8. The conditions noted are these: octanol/water.
For a further data set, the target named is Cytochrome P450 2C19 (Homo sapiens, UniProt P33261). The data set can be described thus: Inhibition of cytochrome P450 2C19.
The next data set deals with Cytochrome P450 2C9 (Homo sapiens, UniProt P11712). Briefly: Inhibition of cytochrome P450 2C9.
Chain of Cytochrome P450 2C9 (P11712 whole entry): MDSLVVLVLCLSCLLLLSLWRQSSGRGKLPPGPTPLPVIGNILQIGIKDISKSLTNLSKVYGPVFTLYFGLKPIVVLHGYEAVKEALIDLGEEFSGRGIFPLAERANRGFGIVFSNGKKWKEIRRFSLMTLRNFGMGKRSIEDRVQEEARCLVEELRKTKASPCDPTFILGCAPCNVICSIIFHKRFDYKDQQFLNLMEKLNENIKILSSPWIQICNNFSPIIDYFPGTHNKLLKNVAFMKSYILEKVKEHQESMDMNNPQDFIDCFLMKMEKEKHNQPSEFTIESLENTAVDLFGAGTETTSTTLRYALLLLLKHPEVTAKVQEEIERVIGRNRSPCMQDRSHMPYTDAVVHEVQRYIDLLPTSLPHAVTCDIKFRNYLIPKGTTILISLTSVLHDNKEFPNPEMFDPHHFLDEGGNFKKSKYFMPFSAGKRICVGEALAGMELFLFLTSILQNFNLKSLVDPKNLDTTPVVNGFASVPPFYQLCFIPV
The target in the next data set is T1, Cytochrome P450 1A2 (Homo sapiens, UniProt P05177).
T1 sequence (P05177 whole entry): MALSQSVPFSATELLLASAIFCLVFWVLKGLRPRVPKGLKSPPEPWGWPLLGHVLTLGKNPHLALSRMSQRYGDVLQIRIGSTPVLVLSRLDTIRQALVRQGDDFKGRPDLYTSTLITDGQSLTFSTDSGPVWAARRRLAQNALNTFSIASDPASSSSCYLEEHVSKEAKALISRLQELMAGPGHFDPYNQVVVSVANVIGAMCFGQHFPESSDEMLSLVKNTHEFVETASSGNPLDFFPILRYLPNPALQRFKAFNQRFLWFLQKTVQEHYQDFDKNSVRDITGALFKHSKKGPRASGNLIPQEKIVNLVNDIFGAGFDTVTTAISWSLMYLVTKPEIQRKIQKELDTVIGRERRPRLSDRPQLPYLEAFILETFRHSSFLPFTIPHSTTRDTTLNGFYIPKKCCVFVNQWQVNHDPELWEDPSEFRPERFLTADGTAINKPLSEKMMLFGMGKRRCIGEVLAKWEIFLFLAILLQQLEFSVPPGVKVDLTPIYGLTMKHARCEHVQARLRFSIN
The data set can be described thus: Inhibition of cytochrome P450 1A2.

A further data set addresses Cytochrome P450 3A4 (Homo sapiens, UniProt P08684). Briefly: Inhibition of cytochrome P450 3A4.
For another data set, the target named is Cytochrome P450 2D6 (Homo sapiens, UniProt P10635). Briefly: Inhibition of cytochrome P450 2D6.
Chain of Cytochrome P450 2D6 (P10635 whole entry): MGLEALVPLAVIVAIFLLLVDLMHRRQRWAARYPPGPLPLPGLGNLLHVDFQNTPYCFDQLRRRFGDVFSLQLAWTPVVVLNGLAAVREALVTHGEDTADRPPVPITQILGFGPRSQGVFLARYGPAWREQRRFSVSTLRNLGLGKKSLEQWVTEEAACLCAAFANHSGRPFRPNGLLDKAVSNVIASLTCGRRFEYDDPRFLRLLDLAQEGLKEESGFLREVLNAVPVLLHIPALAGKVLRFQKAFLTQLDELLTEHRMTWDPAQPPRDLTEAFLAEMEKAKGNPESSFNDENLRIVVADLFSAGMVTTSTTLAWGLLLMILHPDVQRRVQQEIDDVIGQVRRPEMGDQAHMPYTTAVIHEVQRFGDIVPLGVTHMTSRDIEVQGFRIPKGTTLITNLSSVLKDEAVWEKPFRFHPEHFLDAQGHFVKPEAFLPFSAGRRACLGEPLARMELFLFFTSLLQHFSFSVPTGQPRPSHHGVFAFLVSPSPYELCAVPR

Each structure is given as a SMILES string. Some results are limits rather than exact numbers.

Chain of Cytochrome P450 3A4 (P08684 whole entry): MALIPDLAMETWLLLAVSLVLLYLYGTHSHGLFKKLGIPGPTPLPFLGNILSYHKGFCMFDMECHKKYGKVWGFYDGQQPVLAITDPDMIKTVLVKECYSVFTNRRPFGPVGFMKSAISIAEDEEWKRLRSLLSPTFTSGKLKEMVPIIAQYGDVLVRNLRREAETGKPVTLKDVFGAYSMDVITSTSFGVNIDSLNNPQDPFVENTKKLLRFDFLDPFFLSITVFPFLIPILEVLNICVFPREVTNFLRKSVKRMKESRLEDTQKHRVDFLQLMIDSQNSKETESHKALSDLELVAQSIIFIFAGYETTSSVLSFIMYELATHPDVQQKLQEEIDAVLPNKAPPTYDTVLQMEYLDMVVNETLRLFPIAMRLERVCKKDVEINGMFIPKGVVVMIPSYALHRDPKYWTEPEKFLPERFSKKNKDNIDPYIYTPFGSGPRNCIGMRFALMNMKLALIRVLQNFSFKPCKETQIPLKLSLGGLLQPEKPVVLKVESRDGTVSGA
Chain of Cytochrome P450 2C19 (P33261 whole entry): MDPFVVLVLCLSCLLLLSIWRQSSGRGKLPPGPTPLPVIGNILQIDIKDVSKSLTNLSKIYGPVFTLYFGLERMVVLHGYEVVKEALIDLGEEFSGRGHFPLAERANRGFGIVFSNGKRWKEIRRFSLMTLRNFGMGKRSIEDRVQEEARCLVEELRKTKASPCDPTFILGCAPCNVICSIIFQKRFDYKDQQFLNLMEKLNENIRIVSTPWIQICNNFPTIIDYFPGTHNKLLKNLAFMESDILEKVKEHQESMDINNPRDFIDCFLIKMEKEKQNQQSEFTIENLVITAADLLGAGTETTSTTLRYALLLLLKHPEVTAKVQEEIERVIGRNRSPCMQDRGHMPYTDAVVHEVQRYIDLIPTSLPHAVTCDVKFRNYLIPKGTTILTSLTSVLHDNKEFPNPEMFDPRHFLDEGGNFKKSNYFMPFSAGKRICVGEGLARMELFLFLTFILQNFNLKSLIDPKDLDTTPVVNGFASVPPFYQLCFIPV

On to `c1ccc(COc2ccc(-n3ccnc3)cc2)nc1`, for which the IC50 (commonly the midpoint of a concentration-inhibition curve) is 4.5 nM in data set [1]; under 46 nM on Cytochrome P450 2C19; 130 nM against Cytochrome P450 2C9; 120 nM on Cytochrome P450 1A2; 630 nM against Cytochrome P450 3A4; 1040 nM against Cytochrome P450 2D6. Further, the logD (in general, lipophilicity at a set pH, counting ionised and neutral species) in data set [2] is 1.99.
In the case of `c1cn(-c2ccc(OCCN3CCOCC3)cc2)cn1`, the IC50 amounted to 8.6 nM in data set [1]; 91 nM against Cytochrome P450 2C19; 1810 nM against Cytochrome P450 2C9; 1480 nM against Cytochrome P450 1A2; 5670 nM against Cytochrome P450 3A4; 399 nM against Cytochrome P450 2D6. In data set [2], the logD is 0.91.
Regarding `c1cc(CCCOc2ccc(-n3ccnc3)cc2)ccn1`, the IC50 is 1.1 nM in data set [1]; under 46 nM against Cytochrome P450 2C19; 101 nM against Cytochrome P450 2C9; under 46 nM against Cytochrome P450 1A2; 344 nM against Cytochrome P450 3A4; 1040 nM against Cytochrome P450 2D6. The logD in data set [2] came to 2.81.
Regarding `CN(C)CCCCCCOc1ccc(-n2ccnc2)cc1`, the IC50 in data set [1] was determined as 2.2 nM; on Cytochrome P450 1A2 it was 800 nM; at Cytochrome P450 3A4, 4460 nM; against Cytochrome P450 2D6, 410 nM. In data set [2], this compound returned a logD of 0.51.
Regarding `CN(C)CCCOc1ccc(-n2ccnc2)cc1`, the IC50 in data set [1] was found to be 51 nM; against Cytochrome P450 1A2, 3400 nM; at Cytochrome P450 3A4, 39000 nM; against Cytochrome P450 2D6 it was 400 nM. In addition, the logD in data set [2] was -0.41.
Regarding `CCOC(=O)N1CCN(CCOc2ccc(-n3ccnc3)cc2)CC1`, the IC50 in data set [1] was 16 nM; against Cytochrome P450 2C19, 469 nM; at Cytochrome P450 2C9, 1440 nM; at Cytochrome P450 1A2, 2240 nM; at Cytochrome P450 3A4, over 100000 nM; at Cytochrome P450 2D6, 3200 nM. In addition, the logD in data set [2] is 2.27.
`c1ccc(CCCOc2ccc(-n3ccnc3)cc2)nc1`: the IC50 in data set [1] was 2.1 nM; against Cytochrome P450 2C19, under 46 nM; at Cytochrome P450 2C9, 129 nM; at Cytochrome P450 1A2, under 46 nM; against Cytochrome P450 3A4 it was 252 nM; against Cytochrome P450 2D6, 620 nM. In data set [2], this compound showed a logD of 2.84.
In the case of `c1cncc(CCCOc2ccc(-n3ccnc3)cc2)c1`, the IC50 in data set [1] is 1.1 nM; at Cytochrome P450 2C19, under 46 nM; against Cytochrome P450 2C9 it was 185 nM; on Cytochrome P450 1A2, under 46 nM; against Cytochrome P450 3A4, 417 nM; against Cytochrome P450 2D6 it was 1300 nM. Moreover, the logD in data set [2] is 2.85.
`CCCCc1ccc(/N=C/NO)c(C)c1`: the IC50 in data set [1] came to 8.9 nM.
With `CCCCCCOc1ccc(-n2ccnc2)cn1`, the IC50 in data set [1] worked out at 7.7 nM.
On to `CN(C)CCOc1ccc(-n2ccnc2)cc1`, for which the IC50 in data set [1] was 387 nM; at Cytochrome P450 1A2, 15000 nM; against Cytochrome P450 3A4, over 100000 nM; against Cytochrome P450 2D6, 1050 nM. Further, in data set [2], the logD is -0.08.

These data come from ChEMBL document CHEMBL1137944, “Imidazole derivatives as new potent and selective 20-HETE synthase inhibitors” (Bioorg Med Chem Lett, 2004).
